From the SangsterLogP compilation come the findings set out here.

The data set is described as follows: method code SF, from DOI: 10.1021/jm00128a037, PMID: 2754714.
As to `CCCCOC(=O)CCc1cc(CN2CCCC2)c(O)c(CN2CCCC2)c1`, the logP was found to be 0.3.

`CC(C)OC(=O)CCc1cc(CN2CCCC2)c(O)c(CN2CCCC2)c1`: the logP is -0.21. Then `CC(C)COC(=O)CCCc1cc(CN2CCCC2)c(O)c(CN2CCCC2)c1`, with 0.86; and `CC(C)OC(=O)Cc1cc(CN2CCCC2)c(O)c(CN2CCCC2)c1`, with -0.41. Regarding `CCCOC(=O)CCc1cc(CN2CCCC2)c(O)c(CN2CCCC2)c1`, the logP was -0.11. `CC(C)COC(=O)CCc1cc(CN2CCCC2)c(O)c(CN2CCCC2)c1` yielded a logP of 0.19. With `CCCCOC(=O)Cc1cc(CN2CCCC2)c(O)c(CN2CCCC2)c1`, the lipophilicity (logP) came to 0.18. In the case of `CCCOC(=O)Cc1cc(CN2CCCC2)c(O)c(CN2CCCC2)c1`, the lipophilicity (logP) was -0.37.

For the compound `CCOC(=O)Cc1cc(CN2CCCC2)c(O)c(CN2CCCC2)c1`, the logP is -0.74. To `CCCCOC(=O)CCCc1cc(CN2CCCC2)c(O)c(CN2CCCC2)c1` belongs 1.11; to `CC(C)COC(=O)Cc1cc(CN2CCCC2)c(O)c(CN2CCCC2)c1`, 0.1.
